This data set is described as follows: delta pKa difference between tyrosine kinase inhibitor and anti-oxidative acids. Format: physicochemical. The note with it: between the tyrosine kinase inhibitor and anti-oxidative acids; more than 3 = salt, less than 3 = co-crystal (FDA draft guidelines).

`Cc1ccc(NC(=O)c2ccc(CN3CCN(C)CC3)cc2)cc1Nc1nccc(-c2cccnc2)n1` [imatinib, Imatinib]: the “delta pKa difference” value is on record as “more than 3”.

As for `COc1cc2ncnc(Nc3ccc(F)c(Cl)c3)c2cc1OCCCN1CCOCC1` [gefitinib, Gefitinib], the “delta pKa difference” value is recorded as “less than 3”.

For the origin of these results see patent publication US9895377B2, “Solid forms of tyrosine kinase inhibitors, process for the preparation and their pharmaceutical composition thereof” (LAURUS LABS LIMITED, priority 2012, dated 2018).
